Laboratory results published in patent US20110015067A1, “Herbicidal Compositions Comprising Pyroxasulfone” (BASF SE, priority 2008, published 2011).

Columns and labels:
Format in all cases: in vivo
[1] = system: LOLMU (Lolium multiflorum); experiment: post-emergence greenhouse test; settings: 3.75 g ai/ha
Text: (§1) For the post-emergence treatment, the test plants were first grown to a height of 3 to 20 cm, depending on the plant habit, and only then treated. Here, the herbicidal compositions were suspended or emulsified in water as distribution medium and sprayed using finely distributing nozzles.
(§2) The respective herbicides A and/or safener were formulated as 10% by weight strength suspension concentrate and introduced to the spray liquor with the amount of solvent system used for applying the active compound. Herbicide B and/or safener were used as commercially available formulations and introduced to the spray liquor with the amount of solvent system used for applying the active compound. In the examples, the solvent used was water.
(§3) The test period extended over 20 days. During this time, the plants were tended, and their response to the treatments with active compound was evaluated.
(§4) In the following experiments, the herbicidal activity for the individual herbicide compounds (solo application) and of the mixture was assessed 8 days after treatment (8 DAT) and/or 20 days after treatment (20 DAT).
(§5) The evaluation for the damage caused by the chemical compositions was carried out using a scale from 0 to 100%, compared to the untreated control plants. Here, 0 means no damage and 100 means complete destruction of the plants.

[2] = system: CHEAL (Chenopodium album); experiment: post-emergence greenhouse test; settings: 15 g ai/ha
Text: as §1, §2, §3, §4, §5

[3] = system: AMBEL (Ambrosia artemisifolia); experiment: post-emergence greenhouse test; settings: 3.75 g ai/ha
Text: as §1, §2, §3, §4, §5

[4] = system: MERAN (Mercurialis annua); experiment: post-emergence greenhouse test; settings: 7.5 g ai/ha
Text: as §1, §2, §3, §4, §5

[5] = system: ALOMY (Alopecurus myosuroides); experiment: pre-emergence greenhouse test; settings: for observed activity in % destruction: pre-emergence
Text: (§6) For the pre-emergence treatment, directly after sowing the active compounds, which had been suspended or emulsified in water, were applied by means of finely distributed nozzles. The containers were irrigated gently to promote germination and growth and subsequently covered with transparent plastic hoods until plant had rooted. This cover caused uniform germination of the tests plants, unless this was adversely affected by active compounds.
as §2, §3, §4, §5

[6] = system: BRAPL (Brachiaria plantaginea); experiment: pre-emergence greenhouse test; settings: pre-emergence, 15 g ai/ha
Text: as §6, §2, §3, §4, §5

[7] = system: COMBE (Commelina benghalensis); experiment: pre-emergence greenhouse test; settings: for observed activity in % destruction: pre-emergence
Text: as §6, §2, §3, §4, §5

PHBPU (Ipomoea purpurea) = experiment: pre-emergence greenhouse test; settings: PHBPU pre-emergence 15 g ai/ha
Text: as §6, §2, §3, §4, §5

[8] = system: CCHEC (Cenchrus echinatus); experiment: pre-emergence greenhouse test
Text: as §6, §2, §3, §4, §5

[9] = system: PANDI (Panicum dichotomiflorum); experiment: pre-emergence greenhouse test; settings: pre-emergence
Text: as §6, §2, §3, §4, §5

SETVI (Setaria viridis) = experiment: pre-emergence greenhouse test; settings: for observed activity in % destruction: pre-emergence
Text: as §6, §2, §3, §4, §5

[10] = system: AMARE (Amaranthus retroflexus); experiment: pre-emergence greenhouse test; settings: for observed activity in % destruction: pre-emergence
Text: as §6, §2, §3, §4, §5

[11] = system: AMBEL (Ambrosia artemisifolia); experiment: pre-emergence greenhouse test
Text: as §6, §2, §3, §4, §5

[12] = system: PANMI (Panicum milliaceum); experiment: pre-emergence greenhouse test
Text: as §6, §2, §3, §4, §5

SOLNI (Solanum nigrum) = experiment: pre-emergence greenhouse test
Text: as §6, §2, §3, §4, §5

[13] = system: ECHCG (Echinochloa crus-galli); experiment: pre-emergence greenhouse test; settings: for observed activity in % destruction: pre-emergence
Text: as §6, §2, §3, §4, §5

ERBVI = experiment: pre-emergence greenhouse test
Text: as §6, §2, §3, §4, §5

CC(C)C1(C)N=C(c2nc3ccccc3cc2C(=O)O)NC1=O (centres unmarked) [imazaquin]
80%: observed activity in % destruction ([9]; 15 g ai/ha, 20 DAT) | observed % destruction 20 DAT ([11]; AMBEL pre-emergence 15 g ai/ha)
20%: observed activity in % destruction ([2]; 8 DAT) | observed activity in % destruction ([3]; 8 DAT) | observed activity in % destruction ([3]; 20 DAT) | observed activity in % destruction ([4]; 8 DAT) | observed activity in % destruction ([6]; 8 DAT) | observed activity in % destruction ([7]; 3.75 g ai/ha, 8 DAT) | observed % destruction 20 DAT ([8]; CCHEC pre-emergence 3.75 g ai/ha) | observed % destruction 20 DAT ([8]; CCHEC pre-emergence 7.5 g ai/ha) | observed activity in % destruction ([9]; 7.5 g ai/ha, 8 DAT) | observed % destruction 20 DAT ([13]; ECHCG pre-emergence 15 g ai/ha) | observed activity in % destruction ([13]; 15 g ai/ha, 8 DAT) | observed activity in % destruction ([13]; 15 g ai/ha, 20 DAT) | observed % destruction 20 DAT (ERBVI; ERBVI pre-emergence 7.5 g ai/ha)
50%: observed activity in % destruction ([7]; 15 g ai/ha, 8 DAT) | observed % destruction 20 DAT ([10]; AMARE pre-emergence 3.75 g ai/ha) | observed activity in % destruction ([10]; 3.75 g ai/ha, 20 DAT) | observed activity in % destruction ([10]; 7.5 g ai/ha, 8 DAT) | observed % destruction 20 DAT ([11]; AMBEL pre-emergence 3.75 g ai/ha)
0%: observed activity in % destruction ([1]; 8 DAT) | observed activity in % destruction ([1]; 20 DAT) | observed activity in % destruction ([4]; 20 DAT) | observed activity in % destruction ([5]; 3.75 g ai/ha, 8 DAT) | observed activity in % destruction ([9]; 3.75 g ai/ha, 8 DAT) | observed % destruction 20 DAT ([13]; ECHCG pre-emergence 3.75 g ai/ha) | observed % destruction 20 DAT ([13]; ECHCG pre-emergence 7.5 g ai/ha) | observed activity in % destruction ([13]; 7.5 g ai/ha, 8 DAT) | observed activity in % destruction ([13]; 7.5 g ai/ha, 20 DAT) | observed % destruction 20 DAT (ERBVI; ERBVI pre-emergence 3.75 g ai/ha)
65%: observed activity in % destruction (SETVI (Setaria viridis); 15 g ai/ha, 8 DAT)
40%: observed activity in % destruction ([7]; 7.5 g ai/ha, 8 DAT) | observed % destruction 20 DAT (PHBPU (Ipomoea purpurea)) | observed activity in % destruction ([9]; 15 g ai/ha, 8 DAT) | observed activity in % destruction ([10]; 3.75 g ai/ha, 8 DAT) | observed % destruction 20 DAT ([12]; PANMI pre-emergence 7.5 g ai/ha) | observed % destruction 20 DAT (SOLNI (Solanum nigrum); SOLNI pre-emergence 3.75 g ai/ha)
75%: observed % destruction 20 DAT ([5]; ALOMY pre-emergence 15 g ai/ha) | observed activity in % destruction ([5]; 15 g ai/ha, 20 DAT) | observed activity in % destruction ([9]; 7.5 g ai/ha, 20 DAT) | observed % destruction 20 DAT (SETVI (Setaria viridis); SETVI pre-emergence 15 g ai/ha) | observed activity in % destruction (SETVI (Setaria viridis); 15 g ai/ha, 20 DAT)
85%: observed % destruction 20 DAT (SOLNI (Solanum nigrum); SOLNI pre-emergence 15 g ai/ha)
35%: observed % destruction 20 DAT ([7]; COMBE pre-emergence 3.75 g ai/ha) | observed activity in % destruction ([7]; 3.75 g ai/ha, 20 DAT) | observed % destruction 20 DAT ([8]; CCHEC pre-emergence 15 g ai/ha)
60%: observed activity in % destruction ([6]; 20 DAT) | observed activity in % destruction ([10]; 7.5 g ai/ha, 20 DAT) | observed % destruction 20 DAT ([11]; AMBEL pre-emergence 7.5 g ai/ha)
10%: observed activity in % destruction ([2]; 20 DAT)
45%: observed % destruction 20 DAT ([7]; COMBE pre-emergence 7.5 g ai/ha) | observed activity in % destruction ([7]; 7.5 g ai/ha, 20 DAT) | observed activity in % destruction ([9]; 3.75 g ai/ha, 20 DAT) | observed % destruction 20 DAT ([12]; PANMI pre-emergence 15 g ai/ha)
70%: observed activity in % destruction ([7]; 15 g ai/ha, 20 DAT) | observed % destruction 20 DAT ([10]; AMARE pre-emergence 15 g ai/ha) | observed % destruction 20 DAT (SOLNI (Solanum nigrum); SOLNI pre-emergence 7.5 g ai/ha)
30%: observed activity in % destruction ([5]; 3.75 g ai/ha, 20 DAT) | observed activity in % destruction ([5]; 15 g ai/ha, 8 DAT) | observed activity in % destruction (SETVI (Setaria viridis); 3.75 g ai/ha, 8 DAT) | observed activity in % destruction (SETVI (Setaria viridis); 3.75 g ai/ha, 20 DAT) | observed % destruction 20 DAT ([12]; PANMI pre-emergence 3.75 g ai/ha)
